Results taken from patent US20220249441A1, “Homodimeric Tobramycin Adjuvant Repurposes Novobiocin as an Effective Antibacterial Agent Against Gram-Negative Bacteria” (priority 2019, published 2022).

Key:
A. baumannii ATCC 17978 = experiment: microbe, parasite or virus in culture; assay type: cell-based, Acinetobacter baumannii; conditions: after 7 days of serial passaging
Protocol: (§1) Development of Resistance Study. […] Tobramycin and colistin were included as controls. At 24-hour intervals, the cultures were assessed for growth. […] This serial passaging was repeated for 8 days.

[1] = tested on: A. baumannii ATCC 17978 and resistant mutants; experiment: microbe, parasite or virus in culture; assay type: cell-based, Acinetobacter baumannii
Protocol: Antimicrobial Susceptibility Assay. The in vitro antimicrobial activity of all compounds/antibiotics against a panel of bacteria was evaluated by microbroth dilution method in accordance with the Clinical and Laboratory Standards Institute (CLSI) guidelines (using ATCC strains as quality control strains) (54). Overnight grown bacterial cultures were diluted in saline to achieve a 0.5 McFarland turbidity, followed by 1:50 dilution in Mueller-Hinton broth (MHB) for inoculation to a final concentration of approximately 5×10^5 CFU/mL. […] The lowest concentration that prevented the visible growth of bacteria was defined as the MIC for each antimicrobial agent. The broth with or without bacterial cells was used as positive or negative control, respectively.
as §1

Galleria mellonella = Galleria mellonella tolerability study; assay type: in vivo; conditions: 100 mg/kg single dose; after 96 h (4 days)
Protocol: Galleria mellonella In vivo Larvae-Infection Model. In vivo synergistic effects were determined using Galleria mellonella infection model, as previously described (49). Briefly, larvae were purchased from The Worm Lady Live Feeder (ON, Canada), stored in their natural habitat at 16° C., and used within 10 days of delivery. The larvae (average weight of 250 mg) were used for tolerability and efficacy studies. Tolerability study was performed by injecting a 10 μL aliquot of antimicrobial agents only at concentrations equivalent to 100 mg/kg or 200 mg/kg. The larvae (ten in each group) were incubated at 37° C. and monitored for 96 h. For efficacy studies, the virulence and bacterial load required to kill 100% of the larvae within 24 h (with no treatment) was first determined, which is approximately 10 CFU. Overnight grown culture of respective MDR A. baumannii isolate was standardized to 0.5 McFarland standard and diluted in PBS to a final concentration of 10^3 CFU/mL. A 10 μL aliquot of this solution (˜10 CFU) was injected into each larva and incubated for 3 h at 37° C. […] Larvae treated with 10 μL of PBS or high concentrations of test antibiotics served as negative and positive control, respectively. The larvae were incubated at 37° C. in Petri dishes lined with filter paper and scored for survivability every 6 h for up to 36 h. […]

Q: What does the source list for Colistin?
A: fold change in MIC (A. baumannii ATCC 17978): 1024 fold; MIC ([1]; Mutant A (seven serial passages, sub-MICs novobiocin)): 8 µg/mL; MIC ([1]; Mutant B (seven serial passages, sub-MICs colistin)): 1024 µg/mL; MIC ([1]; Mutant C (seven serial passages, sub-MICs novobiocin + 7.1 μM compound 1)): 0.031 µg/mL; MIC ([1]; Wild-type A. baumannii ATCC 17978): 0.063 µg/mL; larvae killed (mortality) (Galleria mellonella): 90%
